Laboratory results from patent US4760136A, “Chartreusin derivatives and salts thereof” (Ishihara Sangyo Kaisha, Ltd., priority 1984, dated 1988).
Counter-ions that a name gives are not always drawn.

Tests used:
[1] = Acute toxicity, intravenous (once), ddY mice; type: in vivo; conditions: mouse, in vivo, iv, formulated per Preparation Example
Text: In Table 7 are shown acute toxicity values (LD50, mg/kg) in ddY mice in the case of intravenously administering (once) each of the compounds of this invention in the form of preparations shown in the Preparation Examples shown in Table 7.

P-388 leukemia cells = experiment: Antitumor activity: P-388 leukemia cells inoculated intraperitoneally, drug administered intravenously, BDF1 mice; type: in vivo; conditions: BDF1 mice, P-388 i.p.; for response vs control in vivo at 20 mg/kg: dose b: 20 mg/kg × 3, i.v. on days 1, 5 and 9; for response vs control in vivo at 10 mg/kg: dose a: 10 mg/kg × 3, i.v. on days 1, 5 and 9; for response vs control in vivo at 80 mg/kg: dose f: 80 mg/kg × 3, i.v. on days 1, 5 and 9
Procedure, shortened: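 Drug dosing was intravenous on the first, fifth and ninth days after intraperitoneal inoculation of P-388 leukemia cells (1×10^6 per mouse) into BDF1 mice. Vehicles were physiological saline alone, or saline with small amounts of sodium carboxymethyl cellulose or Tween-80.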

[2] = Mus musculus, P388, iv, read-out: T/C (%) of MST
[3] = Mus musculus, P388, iv, dose c: 40 mg/kg × 3, i.v. on days 1, 5 and 9, read-out: T/C (%) of MST

| Structure (SMILES) | LD50 [1] | response vs control in vivo at 20 mg/kg (P-388 leukemia cells; [2]) | response vs control in vivo at 40 mg/kg (P-388 leukemia cells; [3]) | response vs control in vivo at 10 mg/kg (P-388 leukemia cells; [2]) | response vs control in vivo at 80 mg/kg (P-388 leukemia cells; [2]) | response vs control in vivo at 50 mg/kg (P-388 leukemia cells; Mus musculus, P388, iv, dose d: 50 mg/kg × 3, i.v. on days 1, 5 and 9, read-out: T/C (%) of MST) | T/C (%) of MST (P-388 leukemia cells; dose c: 40 mg/kg × 3, i.v. on days 1, 5 and 9) |
| --- | --- | --- | --- | --- | --- | --- | --- |
| COC1C(O)C(C)OC(OC2C(Oc3cccc4c(OC(=O)CCNC(=O)CN)c5c(=O)oc6ccc(C)c7c(=O)oc(c34)c5c67)OC(C)C3OC(c4ccccc4)OC32)C1O (stereo not shown) [compound 10] | ≥ 40 mg/kg | 161% | 197% |  |  |  |  |
| COC1C(O)C(C)OC(OC2C(Oc3cccc4c(OC(=O)CCN5CCOCC5)c5c(=O)oc6ccc(C)c7c(=O)oc(c34)c5c67)OC(C)C3OC(c4ccccc4)OC32)C1O (stereo not shown) [compound 32] | ≥ 40 mg/kg | 186% |  | 146% |  |  |  |
| COC1C(O)C(C)OC(OC2C(Oc3cccc4c(OC(=O)CCNC(=O)CN)c5c(=O)oc6ccc(C)c7c(=O)oc(c34)c5c67)OC(C)C3OC(c4cccc(F)c4)OC32)C1O (stereo not drawn) [compound 33, 6-O-(glycyl-β-alanyl)-3',4'-O-(m-fluorobenzylidene)-chartreusin phosphate] | ≥ 40 mg/kg | 186% |  | 157% |  |  |  |
| COC1C(O)C(C)OC(OC2C(Oc3cccc4c(OC(=O)C(CN)C(C)C)c5c(=O)oc6ccc(C)c7c(=O)oc(c34)c5c67)OC(C)C3OC(c4ccccc4)OC32)C1O (stereo not drawn) [compound 35, 6-O-(α-isopropyl-β-alanyl)-3',4'-O-benzylidene-chartreusin phosphate] | ≥ 40 mg/kg |  | 173% |  |  |  |  |
| CO[C@H]1[C@@H](O)[C@@H](C)O[C@H](O[C@H]2[C@H](Oc3cccc4c(OC(=O)[C@@H](NC(=O)CNC(=O)CN)C(C)C)c5c(=O)oc6ccc(C)c7c(=O)oc(c34)c5c67)O[C@H](C)[C@@H]3OC(c4ccccc4)O[C@@H]32)[C@@H]1O (stereo partly shown) [compound 36, 6-O-(glycyl-glycyl-valyl)-3',4'-O-benzylidene-chartreusin phosphate] | ≥ 40 mg/kg | 157% |  | 135% |  |  |  |
| COC1C(O)C(C)OC(OC2C(Oc3cccc4c(OC(=O)CCN)c5c(=O)oc6ccc(C)c7c(=O)oc(c34)c5c67)OC(C)C3OC(C)(C)OC32)C1O (stereo not drawn) [compound 42, 6-O-(β-alanyl)-3',4'-O-isopropylidene-chartreusin hydrochloride] | ≥ 100 mg/kg |  |  |  | 187% |  |  |
| COC1C(O)C(C)OC(OC2C(Oc3cccc4c(OC(=O)CCCCCN)c5c(=O)oc6ccc(C)c7c(=O)oc(c34)c5c67)OC(C)C3OC(C)(C)OC32)C1O (stereo not shown) [compound 59] | ≥ 100 mg/kg |  | 146% |  | 218% |  |  |
| COC1C(O)C(C)OC(OC2C(Oc3cccc4c(OC(=O)C(CNC(=O)OCc5ccccc5)C(C)C)c5c(=O)oc6ccc(C)c7c(=O)oc(c34)c5c67)OC(C)C3OC(c4ccccc4)OC32)C1O (stereo not shown) [compound 70] | ≥ 40 mg/kg | 135% | 181% |  |  |  |  |
| COC1C(O)C(C)OC(OC2C(Oc3cccc4c(OC(=O)CNC(=O)OCc5ccccc5)c5c(=O)oc6ccc(C)c7c(=O)oc(c34)c5c67)OC(C)C3OC(c4ccccc4)OC32)C1O (stereo not shown) [compound 71] | ≥ 40 mg/kg | 157% |  |  |  |  |  |
| COC1C(O)C(C)OC(OC2C(Oc3cccc4c(OC(=O)CCNC(=O)OCc5ccccc5)c5c(=O)oc6ccc(C)c7c(=O)oc(c34)c5c67)OC(C)C3OC(c4ccccc4)OC32)C1O (stereo not shown) [compound 72] | ≥ 40 mg/kg | 167% |  |  |  |  |  |
| COC1C(O)C(C)OC(OC2C(Oc3cccc4c(OC(=O)CCNC(=O)OCc5ccccc5)c5c(=O)oc6ccc(C)c7c(=O)oc(c34)c5c67)OC(C)C3OC(c4cccc(F)c4)OC32)C1O (stereo not shown) [compound 73] | ≥ 40 mg/kg | 176% | 229% |  |  |  |  |
| COC1C(O)C(C)OC(OC2C(Oc3cccc4c(OC(=O)C(C)CNC(=O)CNC(=O)OCc5ccccc5)c5c(=O)oc6ccc(C)c7c(=O)oc(c34)c5c67)OC(C)C3OC(c4ccccc4)OC32)C1O (stereo not shown) [compound 74] | ≥ 40 mg/kg | 186% |  |  |  |  |  |
| COC1C(O)C(C)OC(OC2C(Oc3cccc4c(OC(=O)CCNC(=O)CNC(=O)OCc5ccccc5)c5c(=O)oc6ccc(C)c7c(=O)oc(c34)c5c67)OC(C)C3OC(c4ccccc4)OC32)C1O (stereo not shown) [compound 75] | ≥ 40 mg/kg | 153% | 197% |  |  |  |  |
| COC1C(O)C(C)OC(OC2C(Oc3cccc4c(OC(=O)CCCNC(=O)OCc5ccccc5)c5c(=O)oc6ccc(C)c7c(=O)oc(c34)c5c67)OC(C)C3OC(c4ccccc4)OC32)C1O (stereo not shown) [compound 76] | ≥ 40 mg/kg | 135% | 184% |  |  |  |  |
| COC1C(O)C(C)OC(OC2C(Oc3cccc4c(OC(=O)CCCCCCCNC(=O)C(F)(F)F)c5c(=O)oc6ccc(C)c7c(=O)oc(c34)c5c67)OC(C)C3OC(c4ccccc4)OC32)C1O (stereo not shown) [compound 77] | ≥ 40 mg/kg | 135% | 186% |  |  |  |  |
| COC1C(O)C(C)OC(OC2C(Oc3cccc4c(OC(=O)CCCCCNC(=O)C(F)(F)F)c5c(=O)oc6ccc(C)c7c(=O)oc(c34)c5c67)OC(C)C3OC(c4ccccc4)OC32)C1O (stereo not shown) [compound 78, 6-O-(N-trifluoroacetyl-6-amino-n-hexanoyl)-3',4'-O-benzylidene-chartreusin] | ≥ 100 mg/kg |  | 146% |  | 176% |  |  |
| COC1C(O)C(C)OC(OC2C(Oc3cccc4c(OC(=O)CCNC=O)c5c(=O)oc6ccc(C)c7c(=O)oc(c34)c5c67)OC(C)C3OC(c4ccsc4)OC32)C1O (stereo not shown) [compound 81] | ≥ 40 mg/kg | 139% | 173% |  |  |  |  |
| COC1C(O)C(C)OC(OC2C(Oc3cccc4c(OC(=O)CN(C)C(=O)C(F)(F)F)c5c(=O)oc6ccc(C)c7c(=O)oc(c34)c5c67)OC(C)C3OC(c4ccccc4F)OC32)C1O (stereo not shown) [compound 82] | ≥ 80 mg/kg |  | 148% |  | 205% |  |  |
| COC1C(O)C(C)OC(OC2C(Oc3cccc4c(OC(=O)CCNC=O)c5c(=O)oc6ccc(C)c7c(=O)oc(c34)c5c67)OC(C)C3OC(CCc4ccccc4)OC32)C1O (stereo not shown) [compound 83] | ≥ 80 mg/kg |  | 144% |  | 208% |  |  |
| COC1C(O)C(C)OC(OC2C(Oc3cccc4c(OC(=O)CCNC=O)c5c(=O)oc6ccc(C)c7c(=O)oc(c34)c5c67)OC(C)C3OC(c4ccco4)OC32)C1O (stereo not shown) [compound 84] | ≥ 80 mg/kg |  | 145% |  | 208% |  |  |
| COC1C(O)C(C)OC(OC2C(Oc3cccc4c(OC(=O)C(C)CNC(=O)C(F)(F)F)c5c(=O)oc6ccc(C)c7c(=O)oc(c34)c5c67)OC(C)C3OC(C)(C)OC32)C1O (stereo not shown) [compound 85] | ≥ 100 mg/kg |  |  |  | 157% |  |  |
| COC1C(O)C(C)OC(OC2C(Oc3cccc4c(OC(=O)CN(C)C(=O)C(F)(F)F)c5c(=O)oc6ccc(C)c7c(=O)oc(c34)c5c67)OC(C)C3OC(C)(C)OC32)C1O (stereo not shown) [compound 86] | ≥ 100 mg/kg |  |  |  | 136% |  |  |
| COC1C(O)C(C)OC(OC2C(Oc3cccc4c(OC(=O)CNC(=O)c5ccccc5)c5c(=O)oc6ccc(C)c7c(=O)oc(c34)c5c67)OC(C)C3OC(C)(C)OC32)C1O (stereo not shown) [compound 88] | ≥ 100 mg/kg |  |  |  |  | 157% |  |
| COC1C(O)C(C)OC(OC2C(Oc3cccc4c(OC(=O)CCNC=O)c5c(=O)oc6ccc(C)c7c(=O)oc(c34)c5c67)OC(C)C3OC(c4cccc(Cl)c4)OC32)C1O (stereo not shown) [compound 90] | ≥ 30 mg/kg | 162% |  |  |  |  |  |
| COC1C(O)C(C)OC(OC2C(Oc3cccc4c(OC(=O)CCCNC(=O)C(F)(F)F)c5c(=O)oc6ccc(C)c7c(=O)oc(c34)c5c67)OC(C)C3OC(c4ccc(F)cc4)OC32)C1O (stereo not shown) [compound 91] | ≥ 40 mg/kg |  |  |  |  |  | 173% |
| COC1C(O)C(C)OC(OC2C(Oc3cccc4c(OC(=O)CCNC=O)c5c(=O)oc6ccc(C)c7c(=O)oc(c34)c5c67)OC(C)C3OC(c4ccc(F)cc4)OC32)C1O (stereo not shown) [compound 92] | ≥ 40 mg/kg | 146% | 192% |  |  |  |  |
| COC1C(O)C(C)OC(OC2C(Oc3cccc4c(OC(=O)CCNC=O)c5c(=O)oc6ccc(C)c7c(=O)oc(c34)c5c67)OC(C)C3OC(c4ccc(Cl)cc4Cl)OC32)C1O (stereo not shown) [compound 93] | ≥ 80 mg/kg |  |  |  | 165% |  |  |
